Consider 19 compounds from patent US10072011B2, “Substituted bridged urea analogs as sirtuin modulators” (GlaxoSmithKline Intellectual Property (No.2) Limited, priority 2014, dated 2018).

For the test, the target named is T1, SIRT1 (Homo sapiens, UniProt Q96EB6).
T1 sequence (Q96EB6 1-747): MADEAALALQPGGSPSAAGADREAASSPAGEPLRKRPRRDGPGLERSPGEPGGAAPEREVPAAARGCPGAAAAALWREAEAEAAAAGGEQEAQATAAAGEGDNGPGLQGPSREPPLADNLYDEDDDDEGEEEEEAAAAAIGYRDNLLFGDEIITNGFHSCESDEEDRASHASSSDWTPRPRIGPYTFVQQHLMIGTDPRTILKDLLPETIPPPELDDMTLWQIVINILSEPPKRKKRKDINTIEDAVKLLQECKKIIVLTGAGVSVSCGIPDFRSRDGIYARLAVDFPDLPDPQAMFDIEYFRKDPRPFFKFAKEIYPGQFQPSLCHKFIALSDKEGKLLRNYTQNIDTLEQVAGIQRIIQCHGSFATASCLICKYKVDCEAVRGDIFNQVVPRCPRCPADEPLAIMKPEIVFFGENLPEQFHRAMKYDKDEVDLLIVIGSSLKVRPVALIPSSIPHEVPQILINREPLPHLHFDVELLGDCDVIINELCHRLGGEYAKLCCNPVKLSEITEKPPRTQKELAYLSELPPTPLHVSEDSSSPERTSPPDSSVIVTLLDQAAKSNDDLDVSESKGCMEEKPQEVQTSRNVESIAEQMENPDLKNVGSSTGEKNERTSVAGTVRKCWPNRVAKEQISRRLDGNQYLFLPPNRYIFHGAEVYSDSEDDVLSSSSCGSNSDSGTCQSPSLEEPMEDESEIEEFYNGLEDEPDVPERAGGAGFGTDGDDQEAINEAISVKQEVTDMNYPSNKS
Description: Trp mass spectrometry assay of SIRT1 activation (Ac-R-H-K-K(Ac)-W-NH2 peptide). Format: biochemical. The conditions noted are these: Trp peptide 0.5 μM, 120 μM βNAD+, 10 nM SIRT1, 25 min at 25° C.; for Emax: 25 min, relative to control (100%), read-out: TRP MAX RESP (percent maximum fold activation). The gist of the method: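 Mass spectrometry read-out (OAADPR formed, or deacetylated Trp peptide) after a 25 min NAD-dependent deacetylation by E. coli-expressed His-SIRT1, stopped with formic acid.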

On to `C[C@@H](NC(=O)c1ccc2c(n1)N(C(=O)Nc1cncc(OC[C@H](O)CO)n1)[C@H]1CCN2C1)C(F)(F)F` [Example 155, (4S)—N5-(6-((R)-2,3-dihydroxypropoxy)pyrazin-2-yl)-N7-((R)-1,1,1-trifluoropropan-2-yl)-3,4-dihydro-1,4-methanopyrido[2,3-b][1,4]diazepine-5,7(2H)-dicarboxamide], for which the Emax is greater than 150% and the “TRP Activity (EC1.5, concentration of test compound that results in 150% activation of SIRT1)” value is “A (EC1.5<1 μM)”.
For `Cc1ncc(-c2ccnc(NC(=O)N3c4nc(C(=O)N[C@H](C)C(F)(F)F)ccc4N4CC[C@H]3C4)n2)o1` [Example 156, (4S)—N5-(4-(2-methyloxazol-5-yl)pyrimidin-2-yl)-N7-((R)-1,1,1-trifluoropropan-2-yl)-3,4-dihydro-1,4-methanopyrido[2,3-b][1,4]diazepine-5,7(2H)-dicarboxamide] the same measures were greater than 150% and “A (EC1.5<1 μM)”.
For `Cc1ncc(-c2ccnc(NC(=O)N3c4nc(C(=O)NCC(F)(F)F)ccc4N4CC[C@H]3C4)n2)o1` [Example 157, (4S)—N5-(4-(2-methyloxazol-5-yl)pyrimidin-2-yl)-N7-(2,2,2-trifluoroethyl)-3,4-dihydro-1,4-methanopyrido[2,3-b][1,4]diazepine-5,7(2H)-dicarboxamide] the same measures were greater than 150% and “A (EC1.5<1 μM)”.
In the same order, the values of `N#Cc1ccc(NC(=O)N2c3nc(C(=O)NCC(F)(F)F)ccc3N3CC[C@H]2C3)nc1` [Example 158, (4S)—N5-(5-cyanopyridin-2-yl)-N7-(2,2,2-trifluoroethyl)-3,4-dihydro-1,4-methanopyrido[2,3-b][1,4]diazepine-5,7(2H)-dicarboxamide] are greater than 150% and “A (EC1.5<1 μM)”.
For the compound `O=C(N[C@H](CO)C(F)(F)F)c1ccc2c(n1)N(C(=O)Nc1cc3c(cn1)OCCC3)[C@H]1CCN2C1` [Example 159], the Emax is greater than 150% and the “TRP Activity (EC1.5, concentration of test compound that results in 150% activation of SIRT1)” value is “A (EC1.5<1 μM)”.
With `O=C(NC1CC1)c1ccc2c(n1)N(C(=O)Nc1cc3c(cn1)OCCC3)[C@H]1CCN2C1` [Example 160, (4S)—N7-cyclopropyl-N5-(3,4-dihydro-2H-pyrano[2,3-c]pyridin-6-yl)-3,4-dihydro-1,4-methanopyrido[2,3-b][1,4]diazepine-5,7(2H)-dicarboxamide], the Emax is greater than 150% and the “TRP Activity (EC1.5, concentration of test compound that results in 150% activation of SIRT1)” value is given as “A (EC1.5<1 μM)”.
For `O=C(NCC(F)(F)F)c1ccc2c(n1)N(C(=O)Nc1cc(OCCO)ccn1)[C@H]1CCN2C1` [Example 161, (4S)—N5-(4-(2-hydroxyethoxy)pyridin-2-yl)-N7-(2,2,2-trifluoroethyl)-3,4-dihydro-1,4-methanopyrido[2,3-b][1,4]diazepine-5,7(2H)-dicarboxamide] the same measures were greater than 150% and “A (EC1.5<1 μM)”.
In the same order, the values of `C[C@@H](NC(=O)c1ccc2c(n1)N(C(=O)Nc1cc(OC[C@@H](O)CO)ncn1)[C@H]1CCN2C1)C(F)(F)F` [Example 162, (4S)—N5-(6-((S)-2,3-dihydroxypropoxy)pyrimidin-4-yl)-N7-((R)-1,1,1-trifluoropropan-2-yl)-3,4-dihydro-1,4-methanopyrido[2,3-b][1,4]diazepine-5,7(2H)-dicarboxamide] are greater than 150% and “A (EC1.5<1 μM)”.
For `C[C@@H](NC(=O)c1ccc2c(n1)N(C(=O)Nc1n[nH]c3ncccc13)[C@H]1CCN2C1)C(F)(F)F` [Example 163, (4S)—N5-(1H-pyrazolo[3,4-b]pyridin-3-yl)-N7-((R)-1,1,1-trifluoropropan-2-yl)-3,4-dihydro-1,4-methanopyrido[2,3-b][1,4]diazepine-5,7(2H)-dicarboxamide] the same measures were greater than 150% and “A (EC1.5<1 μM)”.
Regarding `C#Cc1ccnc(NC(=O)N2c3nc(C(=O)NCC(F)(F)F)ccc3N3CC[C@H]2C3)c1` [Example 164, (4S)—N5-(4-ethynylpyridin-2-yl)-N7-(2,2,2-trifluoroethyl)-3,4-dihydro-1,4-methanopyrido[2,3-b][1,4]diazepine-5,7(2H)-dicarboxamide], the Emax was greater than 150% and the “TRP Activity (EC1.5, concentration of test compound that results in 150% activation of SIRT1)” value is recorded as “A (EC1.5<1 μM)”.
In the same order, the values of `C[C@@H](NC(=O)c1ccc2c(n1)N(C(=O)Nc1cc(N3CCOC3=O)ccn1)[C@H]1CCN2C1)C(F)(F)F` [Example 165, (4S)—N5-(4-(2-oxooxazolidin-3-yl)pyridin-2-yl)-N7-((R)-1,1,1-trifluoropropan-2-yl)-3,4-dihydro-1,4-methanopyrido[2,3-b][1,4]diazepine-5,7(2H)-dicarboxamide] are greater than 150% and “A (EC1.5<1 μM)”.
For `C[C@@H](NC(=O)c1ccc2c(n1)N(C(=O)Nc1ncc3[nH]cnc3n1)[C@H]1CCN2C1)C(F)(F)F` [Example 166, (4S)—N5-(7H-purin-2-yl)-N7-((R)-1,1,1-trifluoropropan-2-yl)-3,4-dihydro-1,4-methanopyrido[2,3-b][1,4]diazepine-5,7(2H)-dicarboxamide] the same measures were greater than 150% and “A (EC1.5<1 μM)”.
Take `CC(=O)Nc1ccnc(NC(=O)N2c3nc(C(=O)NCC(F)(F)F)ccc3N3CC[C@H]2C3)c1` [Example 167, (4S)—N5-(4-acetamidopyridin-2-yl)-N7-(2,2,2-trifluoroethyl)-3,4-dihydro-1,4-methanopyrido[2,3-b][1,4]diazepine-5,7(2H)-dicarboxamide]: the Emax was greater than 150% and the “TRP Activity (EC1.5, concentration of test compound that results in 150% activation of SIRT1)” value was “A (EC1.5<1 μM)”.
In the same order, the values of `CNC(=O)c1ccc(NC(=O)N2c3nc(C(=O)NCC(F)(F)F)ccc3N3CC[C@H]2C3)nc1` [Example 168, (4S)—N5-(5-(methylcarbamoyl)pyridin-2-yl)-N7-(2,2,2-trifluoroethyl)-3,4-dihydro-1,4-methanopyrido[2,3-b][1,4]diazepine-5,7(2H)-dicarboxamide] are greater than 150% and “A (EC1.5<1 μM)”.
In the same order, the values of `Cc1ncc(-c2cc(NC(=O)N3c4nc(C(=O)NCC(F)(F)F)ccc4N4CC[C@H]3C4)ncn2)o1` [Example 169, (4S)—N5-(6-(2-methyloxazol-5-yl)pyrimidin-4-yl)-N7-(2,2,2-trifluoroethyl)-3,4-dihydro-1,4-methanopyrido[2,3-b][1,4]diazepine-5,7(2H)-dicarboxamide] are greater than 150% and “A (EC1.5<1 μM)”.
For `C[C@@H](NC(=O)c1ccc2c(n1)N(C(=O)Nc1cc3cn[nH]c3cn1)[C@H]1CCN2C1)C(F)(F)F` [Example 170, (4S)—N5-(1H-pyrazolo[3,4-c]pyridin-5-yl)-N7-((R)-1,1,1-trifluoropropan-2-yl)-3,4-dihydro-1,4-methanopyrido[2,3-b][1,4]diazepine-5,7(2H)-dicarboxamide] the same measures were greater than 150% and “A (EC1.5<1 μM)”.
For `O=C(NCc1ccccc1)c1ccc2c(n1)N(C(=O)Nc1cc(OC[C@H](O)CO)ccn1)[C@H]1CCN2C1` [Example 171, (4S)—N7-benzyl-N5-(4-((R)-2,3-dihydroxypropoxy)pyridin-2-yl)-3,4-dihydro-1,4-methanopyrido[2,3-b][1,4]diazepine-5,7(2H)-dicarboxamide], the Emax is greater than 150% and the “TRP Activity (EC1.5, concentration of test compound that results in 150% activation of SIRT1)” value is on record as “A (EC1.5<1 μM)”.
In the same order, the values of `CC(C)c1ccc(NC(=O)N2c3nc(C(=O)NCC(F)(F)F)ccc3N3CC[C@H]2C3)nc1` [Example 172, (4S)—N5-(5-isopropylpyridin-2-yl)-N7-(2,2,2-trifluoroethyl)-3,4-dihydro-1,4-methanopyrido[2,3-b][1,4]diazepine-5,7(2H)-dicarboxamide] are greater than 150% and “A (EC1.5<1 μM)”.
As to `C[C@@H](NC(=O)c1ccc2c(n1)N(C(=O)Nc1ncc(OC[C@H](O)CO)cn1)[C@H]1CCN2C1)C(F)(F)F` [Example 173, (4S)—N5-(5-((R)-2,3-dihydroxypropoxy)pyrimidin-2-yl)-N7-((R)-1,1,1-trifluoropropan-2-yl)-3,4-dihydro-1,4-methanopyrido[2,3-b][1,4]diazepine-5,7(2H)-dicarboxamide], the Emax is greater than 150% and the “TRP Activity (EC1.5, concentration of test compound that results in 150% activation of SIRT1)” value is “A (EC1.5<1 μM)”.
